In this experiment the target is 5-hydroxytryptamine receptor 7 (Homo sapiens, UniProt P34969). Nature of the experiment: Displacement of [3H]-5-CT from human 5-HT7b receptor expressed in HEK293 cell membranes incubated for 1 hr by Microbeta Topcount instrument based analysis. A general note: Loss of bound radioactivity is the signal in a displacement assay; it reports binding, not function.

Broadly, the Ki is a measure of affinity in units of concentration, obtained from inhibition or displacement.

Sequence of 5-hydroxytryptamine receptor 7 (P34969 whole entry): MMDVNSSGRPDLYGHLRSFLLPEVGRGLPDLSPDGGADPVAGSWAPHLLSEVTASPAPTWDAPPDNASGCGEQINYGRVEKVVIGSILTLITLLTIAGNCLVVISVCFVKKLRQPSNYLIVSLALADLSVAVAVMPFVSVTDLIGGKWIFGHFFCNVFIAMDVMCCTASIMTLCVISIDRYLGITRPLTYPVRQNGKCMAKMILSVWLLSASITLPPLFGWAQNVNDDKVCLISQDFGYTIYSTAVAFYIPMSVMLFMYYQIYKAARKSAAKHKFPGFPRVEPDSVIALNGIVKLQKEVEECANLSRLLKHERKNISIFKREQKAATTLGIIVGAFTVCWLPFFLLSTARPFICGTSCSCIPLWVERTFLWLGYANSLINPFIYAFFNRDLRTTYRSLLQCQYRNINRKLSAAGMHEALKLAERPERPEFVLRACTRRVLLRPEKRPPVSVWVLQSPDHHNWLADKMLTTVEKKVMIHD

Consider `OC(COc1ccc2c(c1)CCC2)CN1CCN(c2cccc(Cl)c2)CC1` (stereo not drawn), for which affinity was put at a Ki of 285 nM. In other words, the sub-micromolar range.
Consider `CCCc1ccc(OCC(O)CN2CCN(c3ccccc3)CC2)cc1` (stereo not drawn), for which the Ki came out at 1090 nM.
For `CCC(=O)N1c2ccccc2CC1C(=O)NCCCN1CCN(c2ccccc2)CC1` (stereo not drawn) the value was 7130 nM; for `CCC(=O)N1c2ccccc2CC1C(=O)NCCCN1CCN(c2cccc(Cl)c2)CC1` (stereo not drawn), 687 nM.
`CC(=O)c1ccc(OCC(O)CN2CCN(c3ccc(Cl)cc3)CC2)cc1` (stereo not drawn) displayed a Ki of 7130 nM.
`OC(COc1ccc2c(c1)CCC2)CN1CCN(c2ccccc2)CC1` (stereo not drawn): the Ki is 587 nM.
In turn, `CC(=O)c1ccc(OCC(O)CN2CCN(c3ccccc3Cl)CC2)cc1` (stereo not drawn) came in with a Ki of 4670 nM.
Compound `CCCc1ccc(OCC(O)CN2CCN(c3cccc(Cl)c3)CC2)cc1` (stereo not drawn) had a Ki of 360 nM.
Turning to `COc1ccc(OC)c(COCC(O)CN2CCN(c3ccccc3)CC2)c1` (stereo not drawn), the Ki is 2300 nM.
For `COc1ccc(OC)c(COCC(O)CN2CCN(c3cccc(Cl)c3)CC2)c1` (stereo not drawn) the value was 65 nM.
The compound `OC(COc1ccc2c(c1)CCC2)CN1CCN(c2ccc(Cl)cc2)CC1` (stereo not drawn) registered a Ki of 1520 nM.
Compound `CC(=O)c1ccc(OCC(O)CN2CCN(c3cccc(Cl)c3)CC2)cc1` (stereo not drawn) displayed a Ki of 471 nM.
Under `CC(=O)c1ccc(OCC(O)CN2CCN(c3ccccc3)CC2)cc1` (stereo not drawn) stands 1970 nM.

The record behind these values is ChEMBL document CHEMBL5576121, “Halogen Bonding Hot Spots as a Constraint in Virtual Screening: A Case Study of 5-HT7R” (J Med Chem, 2024).
